Here are results for 16 compounds from patent US11186589B2, “Cyanoindoline derivatives as NIK inhibitors” (Janssen Pharmaceutica NV, priority 2016, dated 2021).

Read-outs that look alike come from different tables or passages of the source. Where only a bound is given, the exact number is not on record here.

One assay relates to JJN-3 cells. Briefly: Antiproliferative activity on JJN-3 (NIK translocated) multiple myeloma cells (CellTiter-Glo). Format: cell-based, human. The following applies: JJN-3 (NIK translocated) cells, 96 hr treatment, averaged values, read-out: JJN-3 Proliferation inhibition (IC50 (nM)). As to the method: (§1) Determination of Antiproliferative Activity on JJN-3 (NIK Translocated) and KMS12-BM (NIK WT) Multiple Myeloma Cells
(§2) All compounds tested were dissolved in DMSO and further dilutions were made in culture medium. Final DMSO concentration was 0.3% (v/v) in cell proliferation assays. Viability was assessed using CellTiter-Glo cell viability assay kit (Promega). The human JJN-3 and KMS12-BM cells (DSMZ) were cultured in RPMI 1640 medium supplemented with 2 mM L-glutamine, and 10% fetal calf serum (PAA). Cells were routinely kept as suspension cells at 37° C. in a humidified 5% CO2 atmosphere. Cells were passaged at a seeding density of 0.2×10^6/ml twice a week. Cells were seeded in black tissue culture treated 96-well plates (Perkin Elmer). Densities used for plating ranged from 15000 (JJN3) to 20000 (KMS12BM) cells per well in a total volume of […]. Drugs and/or solvents were added (15 μl) to a final volume of 150 μl. Following 96 hr of treatment, plates were removed from the incubator and allowed to equilibrate to room temperature for approx 10 min. 75 μl CellTiter-Glo reagent was added to each well that was then covered (Perkin Elmer Topseal) and shaken on plate shaker for 10 min. Luminescence was measured on a HTS Topcount (Perkin Elmer). Within an experiment, the results for each treatment were the mean of 2 replicate wells. For initial screening purposes, compounds were tested using a 9 point dilution curve (serial 1:3 dilutions). For each experiment, controls (containing no drug) and a blank incubation (containing cells read at the time of compound addition) were run in parallel. The blank value was subtracted from all control and sample values. For each sample, the mean value for cell growth (in relative light units) was expressed as a percentage of the mean value for cell growth of the control.

The next assay addresses NIK/MAP3K14 (Homo sapiens (Human), UniProt Q99558). Briefly: Inhibition of auto-phosphorylation of recombinant human NF-kappaB-inducing kinase (NIK/MAP3K14) activity (AlphaScreen). To be noted: averaged values over all measurements on all batches, 25 microM ATP. Format: biochemical. As to the method:
Inhibition of Auto-Phosphorylation of Recombinant Human NF-kappaB-Inducing Kinase ([…]) Activity (AlphaScreen®)
NIK/MAP3K14 auto-phosphorylation activity was measured using the AlphaScreen® (αscreen) format (Perkin Elmer). All compounds tested were dissolved in dimethyl sulfoxide (DMSO) and further dilutions were made in assay buffer. Final DMSO concentration was […] in assays. Assay buffer was 50 mM Tris pH 7.5 containing 1 mM EGTA (ethylene glycol tetraacetic acid), 1 mM DTT (dithiothreitol), 0.1 mM Na3VO4, 5 mM MgCl2, 0.01% Tween® 20. Assays were carried out in 384 well Alphaplates (Perkin Elmer). Incubations consisted of compound, 25 microM Adenosine-5′-triphosphate (ATP), and 0.2 nM NIK/MAP3K14. Incubations were initiated by addition of GST-tagged NIK/MAP3K14 enzyme, carried out for 1 h at 25° C. and terminated by addition of stop buffer containing anti-phospho-[…] Ser176/180 antibody. Protein A Acceptor and Glutathione-Donor beads were added before reading using an EnVision® Multilabel Plate Reader (Perkin Elmer). Signal obtained in the wells containing blank samples was subtracted from all other wells and IC50's were determined by fitting a sigmoidal curve to % inhibition of control versus Log10 compound concentration.
(In general: Bead proximity is the source of the signal in Alpha formats.)

The subject of another assay is KMS12-BM cells. Briefly: Antiproliferative activity on KMS12-BM (NIK WT) multiple myeloma cells (CellTiter-Glo). Format: cell-based, human. The following applies: 96 hr treatment, averaged values, read-out: KMS-12 Proliferation inhibition (IC50 (nM)). As to the method:
as §1, §2

Sequence of NIK/MAP3K14 (Q99558 whole entry): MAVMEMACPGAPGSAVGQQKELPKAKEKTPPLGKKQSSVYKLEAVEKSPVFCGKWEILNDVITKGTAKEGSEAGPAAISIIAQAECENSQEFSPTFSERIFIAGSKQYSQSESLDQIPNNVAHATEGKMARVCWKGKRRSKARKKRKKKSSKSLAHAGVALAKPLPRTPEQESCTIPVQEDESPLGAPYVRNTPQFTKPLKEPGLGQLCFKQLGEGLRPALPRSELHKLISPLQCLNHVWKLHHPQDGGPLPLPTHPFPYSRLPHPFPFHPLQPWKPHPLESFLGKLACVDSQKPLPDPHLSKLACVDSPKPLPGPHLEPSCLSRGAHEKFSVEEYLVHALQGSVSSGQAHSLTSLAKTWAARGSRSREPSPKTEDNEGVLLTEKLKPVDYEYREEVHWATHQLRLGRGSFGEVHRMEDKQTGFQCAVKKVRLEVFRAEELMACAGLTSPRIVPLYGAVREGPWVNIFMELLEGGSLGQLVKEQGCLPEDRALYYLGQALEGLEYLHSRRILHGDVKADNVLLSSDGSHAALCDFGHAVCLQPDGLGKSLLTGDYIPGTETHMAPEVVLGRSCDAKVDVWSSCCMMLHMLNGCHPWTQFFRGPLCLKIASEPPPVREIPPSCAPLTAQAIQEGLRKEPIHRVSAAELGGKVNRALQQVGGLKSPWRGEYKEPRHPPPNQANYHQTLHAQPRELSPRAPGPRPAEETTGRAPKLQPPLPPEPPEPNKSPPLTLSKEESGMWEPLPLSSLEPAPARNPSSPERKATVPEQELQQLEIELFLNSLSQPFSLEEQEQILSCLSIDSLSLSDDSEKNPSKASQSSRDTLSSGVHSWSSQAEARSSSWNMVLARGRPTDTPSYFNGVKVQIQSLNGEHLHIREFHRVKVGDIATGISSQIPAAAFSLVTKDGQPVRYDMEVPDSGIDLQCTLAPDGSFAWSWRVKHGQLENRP

`CN1Cc2cc(Nc3nccc(-c4cc(C#N)c5c(c4)C(C)(CO)CN5)n3)nn2CC1=O` (stereo not drawn) [Compound 8b]: the IC50 in the assay with JJN-3 cells (Homo sapiens, JJN-3, 96 h) turned out to be 1150 nM; at NIK/MAP3K14, 4 nM; in the assay on KMS12-BM cells (Homo sapiens, KMS-12-BM, 96 h), 6170 nM.

Consider `Cc1c(Nc2nccc(-c3cc(C#N)c4c(c3)[C@@](C)(CO)CN4)n2)cc(Cl)c2c1CCN2C(=O)CN(C)C` [Compound 16], for which the IC50 in the assay with JJN-3 cells (Homo sapiens, JJN-3, 96 h) is 26 nM; on NIK/MAP3K14 it was 1.6 nM; in the assay with KMS12-BM cells (Homo sapiens, KMS-12-BM, 96 h) it was roughly 339 nM.

For the compound `CC1(CO)CNc2c(C#N)cc(-c3ccnc(Nc4cc(Cl)cc5c4ccn5CCN4CCOCC4)n3)cc21` (stereo not drawn) [Compound 4c], the IC50 is 9 nM in the assay on JJN-3 cells (Homo sapiens, JJN-3, 96 h); 9.6 nM on NIK/MAP3K14; roughly 1020 nM in the assay on KMS12-BM cells (Homo sapiens, KMS-12-BM, 96 h).

In the case of `CC1(CO)CNc2c(C#N)cc(-c3ccnc(Nc4ccc5c(c4)CC(CO)OC5)n3)cc21` (single isomer, unassigned) [Compound 8], the IC50 in the assay with JJN-3 cells turned out to be 41 nM; on NIK/MAP3K14, 2 nM; in the assay with KMS12-BM cells, 162 nM.

Turning to `CC1(CO)CNc2c(C#N)cc(-c3ccnc(Nc4cc(Cl)cc5c4CCN5)n3)cc21` (stereo not drawn) [Compound 10], the IC50 in the assay on JJN-3 cells (Homo sapiens, JJN-3, 96 h) is 42 nM; on NIK/MAP3K14, 4.9 nM; in the assay on KMS12-BM cells (Homo sapiens, KMS-12-BM, 96 h) it was roughly 5750 nM.

With `CN1CCc2ccc(Nc3nccc(-c4cc(C#N)c5c(c4)C(C)(CO)CN5)n3)cc2CC1` (stereo not drawn) [Compound 3], the IC50 with JJN-3 cells (Homo sapiens, JJN-3, 96 h) was roughly 24 nM; on NIK/MAP3K14, 1.4 nM; with KMS12-BM cells (Homo sapiens, KMS-12-BM, 96 h), 85 nM.

Consider `CC(=O)N1CCc2c(C)c(Nc3nccc(-c4cc(C#N)c5c(c4)C(C)(CO)CN5)n3)cc(Cl)c21` (stereo not drawn) [Compound 9], for which the IC50 in the assay on JJN-3 cells (Homo sapiens, JJN-3, 96 h) is 25 nM; on NIK/MAP3K14, 2 nM; in the assay with KMS12-BM cells (Homo sapiens, KMS-12-BM, 96 h), roughly 2750 nM.

With `CN(C)C1COc2c(cc(Cl)cc2Nc2nccc(-c3cc(C#N)c4c(c3)[C@@](C)(CO)CN4)n2)C1` (stereo partly drawn) [Compound 17], the IC50 in the assay with JJN-3 cells amounted to 5 nM; at NIK/MAP3K14, 3.3 nM; in the assay with KMS12-BM cells it was 182 nM.

Consider `CC1(C)Cn2nc(Nc3nccc(-c4cc(C#N)c5c(c4)C(C)(CO)CN5)n3)cc2CO1` (stereo not drawn) [Compound 10b], for which the IC50 with JJN-3 cells (Homo sapiens, JJN-3, 96 h) amounted to 1020 nM; on NIK/MAP3K14, 9.6 nM; in the assay with KMS12-BM cells (Homo sapiens, KMS-12-BM, 96 h), 2400 nM.

Turning to `CC1OCCn2nc(Nc3nccc(-c4cc(C#N)c5c(c4)C(C)(CO)CN5)n3)cc21` (stereo not drawn) [Compound 6b], the IC50 with JJN-3 cells (Homo sapiens, JJN-3, 96 h) is 398 nM; at NIK/MAP3K14, 5.9 nM; in the assay with KMS12-BM cells (Homo sapiens, KMS-12-BM, 96 h), roughly 851 nM.

Take `CNC(=O)CN1CCc2c(Nc3nccc(-c4cc(C#N)c5c(c4)C(C)(CO)CN5)n3)cc(Cl)cc21` (stereo not drawn) [Compound 14]: the IC50 in the assay with JJN-3 cells (Homo sapiens, JJN-3, 96 h) turned out to be 54 nM; at NIK/MAP3K14, 3 nM; in the assay with KMS12-BM cells (Homo sapiens, KMS-12-BM, 96 h), 251 nM.

`CC1(C)CNc2c(C#N)cc(-c3ccnc(Nc4cc(F)cc5[nH]ccc45)n3)cc21` [Compound 8c]: the IC50 in the assay with JJN-3 cells (Homo sapiens, JJN-3, 96 h) was 85 nM; at NIK/MAP3K14, 38 nM; in the assay on KMS12-BM cells (Homo sapiens, KMS-12-BM, 96 h), greater than 10000 nM.

For `CC1(C)CNc2c(C#N)cc(-c3ccnc(Nc4cccc5c4CNCC5)n3)cc21` [Compound 6], the IC50 in the assay with JJN-3 cells (Homo sapiens, JJN-3, 96 h) is 263 nM; on NIK/MAP3K14, 12.6 nM; in the assay with KMS12-BM cells (Homo sapiens, KMS-12-BM, 96 h), 794 nM.

On to `CC1(CO)CNc2c(C#N)cc(-c3ccnc(Nc4cnc5c(c4)COCC5)n3)cc21` (stereo not drawn) [Compound 45], for which the IC50 was roughly 60 nM with JJN-3 cells (Homo sapiens, JJN-3, 96 h); 2.7 nM at NIK/MAP3K14; roughly 186 nM in the assay with KMS12-BM cells (Homo sapiens, KMS-12-BM, 96 h).

As for `COCCCn1ccc2c(Nc3nccc(-c4cc(C#N)c5c(c4)C(C)(CO)CN5)n3)cc(Cl)cc21` (stereo not drawn) [Compound 6c], the IC50 came out at 10 nM in the assay with JJN-3 cells (Homo sapiens, JJN-3, 96 h); 34.8 nM on NIK/MAP3K14; 1620 nM in the assay on KMS12-BM cells (Homo sapiens, KMS-12-BM, 96 h).

Turning to `COc1nc2c(ccn2CC(=O)N(C)C)cc1Nc1nccc(-c2cc(C#N)c3c(c2)[C@@](C)(CO)CN3)n1` [Compound 10c], the IC50 in the assay on JJN-3 cells (Homo sapiens, JJN-3, 96 h) was 63 nM; at NIK/MAP3K14 it was 4.3 nM; in the assay on KMS12-BM cells (Homo sapiens, KMS-12-BM, 96 h) it was greater than 10000 nM.
